What was measured:
[1] = target: Dual specificity protein kinase CLK4 (Homo sapiens, UniProt Q9HAZ1); assay: Selectivity interaction (KinomeScan (DiscoverX)) EUB0000655a CLK4; details: at 10 µM
[2] = target: 3',5'-cyclic-AMP phosphodiesterase 4B (Homo sapiens) (UniProt Q07343); assay: Selectivity interaction (Panel of kinases, GPCRs, ion channels and transporters (enzymatic assay)) EUB0000266bCl PDE4B
[3] = target: Ephrin type-A receptor 7 (Homo sapiens) (UniProt Q15375); assay: Selectivity interaction (KinomeScan (DiscoverX)) EUB0000666a EPHA7; details: at 10 µM
Ephrin type-A receptor 7 (Homo sapiens), sequence (Q15375 28-998 limits assumed): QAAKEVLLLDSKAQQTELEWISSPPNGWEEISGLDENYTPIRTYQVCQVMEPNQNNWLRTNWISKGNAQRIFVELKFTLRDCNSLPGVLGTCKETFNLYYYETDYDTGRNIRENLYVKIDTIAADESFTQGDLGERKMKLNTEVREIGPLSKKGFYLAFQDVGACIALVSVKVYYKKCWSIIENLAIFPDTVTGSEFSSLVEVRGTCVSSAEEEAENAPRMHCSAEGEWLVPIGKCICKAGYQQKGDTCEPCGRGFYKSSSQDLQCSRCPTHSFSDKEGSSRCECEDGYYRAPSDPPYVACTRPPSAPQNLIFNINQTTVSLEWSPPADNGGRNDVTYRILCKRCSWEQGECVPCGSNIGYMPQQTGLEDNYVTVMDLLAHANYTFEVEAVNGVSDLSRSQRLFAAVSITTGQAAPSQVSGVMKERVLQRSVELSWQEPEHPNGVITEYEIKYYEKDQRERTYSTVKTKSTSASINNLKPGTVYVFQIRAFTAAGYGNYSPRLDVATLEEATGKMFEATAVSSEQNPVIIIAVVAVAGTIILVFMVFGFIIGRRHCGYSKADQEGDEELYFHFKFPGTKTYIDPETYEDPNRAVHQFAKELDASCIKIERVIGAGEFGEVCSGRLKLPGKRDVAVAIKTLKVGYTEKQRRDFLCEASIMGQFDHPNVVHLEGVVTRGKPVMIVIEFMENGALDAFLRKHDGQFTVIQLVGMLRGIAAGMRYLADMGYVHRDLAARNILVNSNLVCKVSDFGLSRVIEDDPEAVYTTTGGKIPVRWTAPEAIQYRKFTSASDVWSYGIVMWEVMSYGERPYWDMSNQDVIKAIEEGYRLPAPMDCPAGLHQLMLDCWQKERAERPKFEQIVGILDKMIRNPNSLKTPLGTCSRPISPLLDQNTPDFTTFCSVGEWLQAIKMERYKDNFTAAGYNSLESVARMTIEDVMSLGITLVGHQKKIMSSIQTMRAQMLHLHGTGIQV

[4] = target: Ribosomal protein S6 kinase alpha-6 (Homo sapiens, UniProt Q9UK32); assay: Selectivity interaction (KinomeScan (DiscoverX)) EUB0000666a RPS6KA6; details: at 10 µM
Ribosomal protein S6 kinase alpha-6, sequence (Q9UK32 whole entry): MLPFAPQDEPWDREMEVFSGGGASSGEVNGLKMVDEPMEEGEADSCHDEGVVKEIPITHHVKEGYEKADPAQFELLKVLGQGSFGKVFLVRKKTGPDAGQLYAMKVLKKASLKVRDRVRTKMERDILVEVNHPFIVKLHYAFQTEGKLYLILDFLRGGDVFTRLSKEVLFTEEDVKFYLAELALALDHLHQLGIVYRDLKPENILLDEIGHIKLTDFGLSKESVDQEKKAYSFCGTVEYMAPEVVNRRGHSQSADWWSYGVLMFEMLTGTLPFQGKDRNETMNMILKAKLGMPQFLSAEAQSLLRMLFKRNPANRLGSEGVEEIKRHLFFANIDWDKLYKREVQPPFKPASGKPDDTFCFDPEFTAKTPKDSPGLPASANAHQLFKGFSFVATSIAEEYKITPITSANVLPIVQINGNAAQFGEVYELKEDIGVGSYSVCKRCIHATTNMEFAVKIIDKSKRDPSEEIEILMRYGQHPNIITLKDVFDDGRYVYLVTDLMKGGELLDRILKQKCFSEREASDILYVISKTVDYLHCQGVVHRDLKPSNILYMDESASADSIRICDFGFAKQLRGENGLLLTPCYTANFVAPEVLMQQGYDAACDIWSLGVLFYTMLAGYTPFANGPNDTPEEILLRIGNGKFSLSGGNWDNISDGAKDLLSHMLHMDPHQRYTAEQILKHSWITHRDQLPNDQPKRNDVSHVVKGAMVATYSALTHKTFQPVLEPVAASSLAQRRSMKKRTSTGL

[5] = target: T1, Receptor-interacting serine/threonine-protein kinase 1 (Homo sapiens) (UniProt Q13546); details: at 10 µM
T1 sequence (whole entry): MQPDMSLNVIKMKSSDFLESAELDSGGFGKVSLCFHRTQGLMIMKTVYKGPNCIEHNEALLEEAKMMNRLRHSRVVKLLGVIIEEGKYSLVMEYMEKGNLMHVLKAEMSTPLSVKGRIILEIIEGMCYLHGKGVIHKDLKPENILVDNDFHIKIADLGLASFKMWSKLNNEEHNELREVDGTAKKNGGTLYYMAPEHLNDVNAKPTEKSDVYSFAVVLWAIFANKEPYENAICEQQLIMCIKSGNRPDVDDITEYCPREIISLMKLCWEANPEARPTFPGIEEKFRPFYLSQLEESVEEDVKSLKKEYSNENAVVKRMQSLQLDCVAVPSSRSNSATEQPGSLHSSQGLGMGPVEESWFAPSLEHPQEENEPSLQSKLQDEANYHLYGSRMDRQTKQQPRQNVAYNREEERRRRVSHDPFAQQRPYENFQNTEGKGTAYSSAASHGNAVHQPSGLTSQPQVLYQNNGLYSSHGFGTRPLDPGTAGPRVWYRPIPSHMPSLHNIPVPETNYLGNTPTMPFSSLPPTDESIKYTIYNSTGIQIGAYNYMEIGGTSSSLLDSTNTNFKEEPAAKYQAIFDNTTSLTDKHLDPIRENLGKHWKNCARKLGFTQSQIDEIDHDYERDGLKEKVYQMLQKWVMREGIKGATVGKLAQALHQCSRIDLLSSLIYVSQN

[6] = target: T2, Serine/threonine-protein kinase ULK3 (Homo sapiens) (UniProt Q6PHR2); assay: Selectivity interaction (ActivX KiNativ screen (kinase selectivity in THP-1 cell lysates)) EUB0000639a ULK3; assay type: subcellular; details: lysate, at 0.04 µM
T2 sequence (whole entry): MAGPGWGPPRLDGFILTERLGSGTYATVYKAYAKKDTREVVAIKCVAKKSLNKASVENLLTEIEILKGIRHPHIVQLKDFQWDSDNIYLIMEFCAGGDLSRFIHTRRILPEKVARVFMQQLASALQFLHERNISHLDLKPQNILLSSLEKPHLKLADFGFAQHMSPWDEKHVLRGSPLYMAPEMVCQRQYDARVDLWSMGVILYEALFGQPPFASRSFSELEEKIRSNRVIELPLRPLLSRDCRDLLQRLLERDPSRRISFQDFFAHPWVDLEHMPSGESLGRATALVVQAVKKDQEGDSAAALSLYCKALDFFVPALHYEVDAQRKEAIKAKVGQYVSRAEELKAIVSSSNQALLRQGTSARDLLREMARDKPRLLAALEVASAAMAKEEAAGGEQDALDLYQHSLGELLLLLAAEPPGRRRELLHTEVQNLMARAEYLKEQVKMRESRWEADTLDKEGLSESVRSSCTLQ

[7] = target: Aurora kinase B (Homo sapiens, UniProt Q96GD4); assay: Selectivity interaction (KinomeScan (DiscoverX)) EUB0000607a AURKB; details: at 10 µM
Aurora kinase B, sequence (Q96GD4 whole entry): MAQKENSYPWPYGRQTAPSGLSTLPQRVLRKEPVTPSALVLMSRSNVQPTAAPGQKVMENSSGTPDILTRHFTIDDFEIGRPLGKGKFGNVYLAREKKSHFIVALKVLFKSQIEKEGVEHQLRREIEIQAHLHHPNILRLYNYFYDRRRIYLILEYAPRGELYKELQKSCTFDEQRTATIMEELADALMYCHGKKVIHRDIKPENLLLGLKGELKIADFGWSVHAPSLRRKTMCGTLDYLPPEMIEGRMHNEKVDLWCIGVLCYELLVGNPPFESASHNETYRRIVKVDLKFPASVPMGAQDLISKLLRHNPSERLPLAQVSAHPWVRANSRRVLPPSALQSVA

[8] = target: Cyclin-dependent kinase 9 (Homo sapiens, UniProt P50750); assay: Selectivity interaction (KinomeScan (DiscoverX)) EUB0001049a CDK9; details: at 1 µM
Cyclin-dependent kinase 9, sequence (P50750 whole entry): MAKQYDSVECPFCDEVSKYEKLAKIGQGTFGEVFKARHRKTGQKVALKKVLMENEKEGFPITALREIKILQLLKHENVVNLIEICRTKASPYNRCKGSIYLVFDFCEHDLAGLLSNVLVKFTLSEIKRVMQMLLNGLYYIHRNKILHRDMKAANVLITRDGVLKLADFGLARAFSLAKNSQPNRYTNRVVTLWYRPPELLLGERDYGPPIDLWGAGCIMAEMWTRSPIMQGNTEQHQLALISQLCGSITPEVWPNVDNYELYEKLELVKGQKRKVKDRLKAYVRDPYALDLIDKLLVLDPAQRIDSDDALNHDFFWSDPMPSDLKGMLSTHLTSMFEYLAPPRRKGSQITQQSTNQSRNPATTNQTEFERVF

[9] = target: T3, Serine/threonine-protein kinase Chk1 (Homo sapiens) (UniProt O14757); assay: Selectivity interaction (KinomeScan (DiscoverX)) EUB0000618a CHEK1; details: at 10 µM
T3 sequence (whole entry): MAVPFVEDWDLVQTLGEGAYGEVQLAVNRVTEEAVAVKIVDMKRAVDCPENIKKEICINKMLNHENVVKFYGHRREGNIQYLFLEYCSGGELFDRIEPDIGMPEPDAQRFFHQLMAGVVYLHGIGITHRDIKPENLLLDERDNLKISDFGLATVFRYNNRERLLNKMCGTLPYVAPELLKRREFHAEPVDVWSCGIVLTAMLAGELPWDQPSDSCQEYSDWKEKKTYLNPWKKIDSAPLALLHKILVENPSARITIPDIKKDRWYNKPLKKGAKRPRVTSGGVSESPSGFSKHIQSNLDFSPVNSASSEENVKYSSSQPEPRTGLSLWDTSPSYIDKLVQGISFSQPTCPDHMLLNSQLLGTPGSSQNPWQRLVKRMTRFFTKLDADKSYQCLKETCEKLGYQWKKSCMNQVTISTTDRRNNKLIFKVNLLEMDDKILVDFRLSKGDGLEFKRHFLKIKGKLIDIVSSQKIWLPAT

[10] = target: T4, Dual specificity mitogen-activated protein kinase kinase 7 (Homo sapiens) (UniProt O14733); assay: Selectivity interaction (KinomeScan (DiscoverX)) EUB0000618a MAP2K7; details: at 10 µM
T4 sequence (whole entry): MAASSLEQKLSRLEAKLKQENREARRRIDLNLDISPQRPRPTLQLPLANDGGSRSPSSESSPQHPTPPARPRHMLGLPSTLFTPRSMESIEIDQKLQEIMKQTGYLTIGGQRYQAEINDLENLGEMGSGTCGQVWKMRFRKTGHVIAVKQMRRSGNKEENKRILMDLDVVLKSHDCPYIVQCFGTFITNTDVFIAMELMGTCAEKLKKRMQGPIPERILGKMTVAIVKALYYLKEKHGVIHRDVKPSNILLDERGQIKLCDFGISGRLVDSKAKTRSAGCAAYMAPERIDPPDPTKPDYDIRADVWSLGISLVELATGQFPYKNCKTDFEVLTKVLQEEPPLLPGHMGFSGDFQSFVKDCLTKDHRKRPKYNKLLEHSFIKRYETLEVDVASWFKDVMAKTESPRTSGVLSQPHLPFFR

[11] = target: Wee1-like protein kinase (Homo sapiens) (UniProt P30291); assay: Selectivity interaction (Ambit KINOMEscan and KiNATiv profiling in Jurkat cells) EUB0000090b WEE1; assay type: cell-based; details: at 1 µM
Wee1-like protein kinase (Homo sapiens), sequence (P30291 whole entry, looked up): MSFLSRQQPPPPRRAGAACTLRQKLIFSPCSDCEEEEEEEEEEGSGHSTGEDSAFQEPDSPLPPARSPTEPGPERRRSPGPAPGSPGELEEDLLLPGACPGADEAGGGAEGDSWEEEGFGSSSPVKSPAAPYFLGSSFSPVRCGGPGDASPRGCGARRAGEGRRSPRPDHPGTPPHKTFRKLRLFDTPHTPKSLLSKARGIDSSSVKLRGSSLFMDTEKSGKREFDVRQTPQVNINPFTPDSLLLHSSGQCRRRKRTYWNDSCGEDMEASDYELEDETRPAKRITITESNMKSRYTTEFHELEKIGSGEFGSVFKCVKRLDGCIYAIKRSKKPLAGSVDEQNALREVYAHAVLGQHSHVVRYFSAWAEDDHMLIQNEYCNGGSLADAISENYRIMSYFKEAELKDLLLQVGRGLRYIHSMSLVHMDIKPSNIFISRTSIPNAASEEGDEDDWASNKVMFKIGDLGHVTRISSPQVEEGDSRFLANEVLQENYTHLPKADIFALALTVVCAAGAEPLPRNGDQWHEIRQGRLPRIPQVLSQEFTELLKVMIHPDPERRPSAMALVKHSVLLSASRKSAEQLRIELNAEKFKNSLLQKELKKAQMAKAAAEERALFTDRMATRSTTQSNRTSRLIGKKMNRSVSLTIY

3',5'-cyclic-AMP phosphodiesterase 4B (Homo sapiens), sequence (Q07343 whole entry): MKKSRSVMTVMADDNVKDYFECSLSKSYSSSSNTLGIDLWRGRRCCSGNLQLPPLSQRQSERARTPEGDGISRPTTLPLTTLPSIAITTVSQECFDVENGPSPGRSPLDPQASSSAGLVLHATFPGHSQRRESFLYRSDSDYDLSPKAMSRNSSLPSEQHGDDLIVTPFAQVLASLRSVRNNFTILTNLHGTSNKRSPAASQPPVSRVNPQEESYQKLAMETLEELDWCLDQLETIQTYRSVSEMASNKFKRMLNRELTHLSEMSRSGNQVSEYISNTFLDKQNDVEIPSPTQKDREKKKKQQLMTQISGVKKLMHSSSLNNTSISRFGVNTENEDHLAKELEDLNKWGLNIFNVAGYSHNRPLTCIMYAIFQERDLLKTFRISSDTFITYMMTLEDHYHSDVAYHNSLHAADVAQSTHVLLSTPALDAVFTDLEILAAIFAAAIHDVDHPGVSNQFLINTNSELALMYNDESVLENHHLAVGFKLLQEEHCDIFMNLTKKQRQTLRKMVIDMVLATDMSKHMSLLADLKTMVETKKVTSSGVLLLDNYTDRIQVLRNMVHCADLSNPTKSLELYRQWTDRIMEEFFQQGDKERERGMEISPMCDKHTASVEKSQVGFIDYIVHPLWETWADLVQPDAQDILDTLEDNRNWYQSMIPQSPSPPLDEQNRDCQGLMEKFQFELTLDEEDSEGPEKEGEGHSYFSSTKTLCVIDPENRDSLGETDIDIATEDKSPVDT
Dual specificity protein kinase CLK4, sequence (Q9HAZ1 whole entry, looked up): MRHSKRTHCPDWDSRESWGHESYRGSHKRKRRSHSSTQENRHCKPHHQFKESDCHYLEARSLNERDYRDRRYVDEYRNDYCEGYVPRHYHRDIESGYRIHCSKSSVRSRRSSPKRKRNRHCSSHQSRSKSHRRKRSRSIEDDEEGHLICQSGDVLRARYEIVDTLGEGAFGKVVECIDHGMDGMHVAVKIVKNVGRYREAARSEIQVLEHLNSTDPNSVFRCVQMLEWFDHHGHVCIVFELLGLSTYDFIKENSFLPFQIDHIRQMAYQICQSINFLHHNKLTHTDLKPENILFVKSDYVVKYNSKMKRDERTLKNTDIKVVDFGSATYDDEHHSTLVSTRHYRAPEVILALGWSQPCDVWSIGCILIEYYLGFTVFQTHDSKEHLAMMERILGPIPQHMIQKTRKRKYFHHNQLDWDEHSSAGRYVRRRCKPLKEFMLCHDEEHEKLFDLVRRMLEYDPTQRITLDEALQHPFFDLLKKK

**Q.** Which % of control [1] does the source give for `CN(C)CCOc1ccc(-c2nc(-c3ccncc3)c(-c3ccc4c(c3)CC/C4=N\O)[nH]2)cc1` here?
**A.** 68%

**Q.** Which pXC50 [2] does the source give for `CCn1c(-c2nc3cc(C(=O)N4CCCC(N)C4)ccc3n2C)cc2ccccc21` (stereo unspecified) here?
**A.** 4.6 M

**Q.** `O=C(NOC[C@H](O)CO)c1ccc(F)c(F)c1Nc1ccc(I)cc1F` was tested. Which % of control [3] did it give?
**A.** 94%

**Q.** And the % of control [4]?
**A.** 80%

**Q.** How did the % of control [5] turn out when `Cc1cc([C@@H](C)Nc2ccccc2C(=O)O)c2nc(N3CCOCC3)cc(=O)n2c1` [AZD-6482] was run?
**A.** 100%

**Q.** With `CC[C@@H]1[C@H](F)C(=O)N[C@@H]1COc1nccc2cc(C(N)=O)c(OC)cc12` [ZIMLOVISERTIB] as the compound, how does the % of inhibition [6] read?
**A.** -22.9%

**Q.** Which % of control [7] does the source give for `CNC(=O)Nc1ccc(-c2nc(N3CC4CCC(C3)O4)c3cnn(C4CCC5(CC4)OCCO5)c3n2)cc1` here?
**A.** 92%

**Q.** Which % of control [8] does the source give for `COc1cc(Nc2nc(C)cc(-c3cnn4nc(OC)ccc34)n2)cc(C(F)(F)F)c1` here?
**A.** 100%

**Q.** With `O[C@H]1CC[C@H](Nc2ncc3nc(Nc4c(F)cc(F)cc4F)n([C@H]4CCOC4)c3n2)CC1` as the compound, how does the % of control [9] read?
**A.** 97%

**Q.** What about the % of control [10] of the same compound?
**A.** 94%

**Q.** Which % of control [11] does the source give for `CN(C)C/C=C/C(=O)Nc1ccc(C(=O)N2CCCC(Nc3ncc(Cl)c(-c4c[nH]c5ccccc45)n3)C2)cc1` (stereo unspecified) here?
**A.** 77%
